Experimental data reported in ChEMBL document CHEMBL3132849, “Bioactive prenylated phenyl derivatives derived from marine natural products: novel scaffolds for the design of BACE inhibitors” (Medchemcomm, 2014).
Where “and” joins values, the source holds several entries; their conditions need not be identical. Equal entries are not always repeated. Starred links: 1 amine or outer side, 2 acyl side, 3 side chain; linkers in the order of their positions; H or OH if unused. Non-standard residues stand in square brackets, D forms with d. Residues, ends and D or L forms follow the SMILES beside them. LeuΨ(S-CHOHCH2)Ala = CC(C)C[C@H](N[*:1])[C@@H](O)C[C@@H](C)C(=O)[*:2]

Columns and labels:
[1] = molecular target: Beta-secretase 1 (Homo sapiens) (UniProt P56817); experiment: Inhibition of recombinant human BACE1 using fluorogenic peptide 4 as substrate at 1 uM by FRET assay
Chain of Beta-secretase 1 (Homo sapiens) (P56817 whole entry): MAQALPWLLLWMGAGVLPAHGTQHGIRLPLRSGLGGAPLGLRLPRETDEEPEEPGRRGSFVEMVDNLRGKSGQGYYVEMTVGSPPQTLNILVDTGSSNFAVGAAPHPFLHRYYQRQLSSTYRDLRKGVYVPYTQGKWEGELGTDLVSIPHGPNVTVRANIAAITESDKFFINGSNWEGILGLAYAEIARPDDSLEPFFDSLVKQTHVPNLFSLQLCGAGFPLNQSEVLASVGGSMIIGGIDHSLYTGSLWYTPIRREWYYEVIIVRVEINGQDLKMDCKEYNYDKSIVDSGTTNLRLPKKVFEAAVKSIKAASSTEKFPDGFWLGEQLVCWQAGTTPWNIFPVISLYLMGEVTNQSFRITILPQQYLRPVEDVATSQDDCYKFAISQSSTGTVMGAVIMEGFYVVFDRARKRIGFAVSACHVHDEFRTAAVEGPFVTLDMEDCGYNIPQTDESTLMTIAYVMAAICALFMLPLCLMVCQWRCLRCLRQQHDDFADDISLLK

[2] = molecular target: Beta-secretase 1 (Homo sapiens) (UniProt P56817); experiment: Inhibition of recombinant human BACE1 using fluorogenic peptide 4 as substrate at 10 uM by FRET assay
[3] = molecular target: Beta-secretase 1 (Homo sapiens) (UniProt P56817); experiment: Inhibition of BACE1 (unknown origin) expressed in human APP751 transfected CHO-7W cells assessed as inhibition of amyloid-beta (1 to 40) peptide production at 10 uM after 24 hrs by Abeta40 human ELISA Kit; format: cell-based
[4] = Cytotoxicity in human SH-SY5Y cells at 1 to 10 uM; format: cell-based
[5] = molecular target: Beta-secretase 1 (Homo sapiens) (UniProt P56817); experiment: Inhibition of BACE1 (unknown origin) expressed in human APP751 transfected CHO-7W cells assessed as inhibition of amyloid-beta (1 to 40) peptide production at 1 uM after 24 hrs by Abeta40 human ELISA Kit; format: cell-based
CHO = experiment: Cytotoxicity in Cricetulus griseus CHO cells expressing human APP751 at 10 uM; format: cell-based; settings: chinese hamster
[6] = molecular target: Beta-secretase 1 (Homo sapiens) (UniProt P56817); experiment: Inhibition of recombinant human BACE1 assessed as fluorescence at 1 uM using FRET ASSAY KIT
[7] = molecular target: Beta-secretase 1 (Homo sapiens) (UniProt P56817); experiment: Inhibition of recombinant human BACE1 assessed as fluorescence at 10 uM using FRET ASSAY KIT
[8] = molecular target: Beta-secretase 1 (Homo sapiens) (UniProt P56817); settings: CHO-7W, 3 uM
Description: Inhibition of BACE1 in human APP751 transfected CHO-7W cells assessed as inhibition of amyloid-beta (1 to 40) peptide production at 3 uM after 24 hrs by Abeta40 human ELISA Kit

| SMILES | inhibition [1] | inhibition [2] [%] | inhibition [3] | inhibition [5] | inhibition [6] [%] | inhibition [7] [%] | inhibition [8] [%] | Activity [4] | Activity (CHO) |
| --- | --- | --- | --- | --- | --- | --- | --- | --- | --- |
| CC(C)=CCC/C(C)=C/CC/C(C)=C/CC/C(C)=C/Cc1cc(C(=O)O)ccc1O | 42% and 45% | 0 | 30% and 47% | 8% and 10% |  |  |  |  |  |
| COC(=O)c1ccc(OC)c(NC[C@H](O)[C@@H](Cc2ccccc2)NC/C=C(\C)CCC=C(C)C)c1 |  |  |  | 3% | 100 | 56 |  |  | Toxic |
| COc1ccc(C(=O)N[C@@H](Cc2ccccc2)[C@H](O)CNC2CC2)cc1NC/C=C(\C)CC/C=C(\C)CCC=C(C)C |  |  | 28% | 10% | 63 | 34 |  |  |  |
| CC(C)C[C@H](NC(=O)[C@H](CC(N)=O)NC(=O)[C@@H](NC(=O)[C@@H](N)CCC(=O)O)C(C)C)[C@@H](O)C[C@@H](C)C(=O)N[C@@H](C)C(=O)N[C@@H](CCC(=O)O)C(=O)N[C@@H](Cc1ccccc1)C(=O)O (H-EVN[LeuΨ(S-CHOHCH2)Ala]AEF-OH) |  |  |  |  |  |  | 80 |  |  |
| CCOC(=O)COc1ccc(C(=O)OC)cc1N(C/C=C(\C)CC/C=C(\C)CCC=C(C)C)CC(=O)OCC | 100% | 0 | 36% | 14% |  |  |  |  |  |
| COC(=O)c1ccc2c(c1)N(C/C=C(\C)CC/C=C(\C)CCC=C(C)C)C(=O)CO2 | 59% | 22 | 29% | 0% |  |  |  |  |  |
| CC(C)=CCC/C(C)=C/CC/C(C)=C/CN1C(=O)COc2ccc(C(=O)O)cc21 | 100% | 17 | 0% | 0% |  |  |  |  |  |
| CC(=O)Oc1ccc(C(=O)O)cc1C/C=C(\C)CC/C=C(\C)CC/C=C(\C)CCC=C(C)C | 87% | 17 |  | 24% |  |  |  |  | Toxic |

Continued, in another order:

| inhibition [1] | inhibition [2] [%] | inhibition [3] | inhibition [5] | inhibition [6] [%] | inhibition [7] [%] | inhibition [8] [%] | SMILES | Activity [4] | Activity (CHO) |
| --- | --- | --- | --- | --- | --- | --- | --- | --- | --- |
| 100% | 70 | 0% |  |  |  |  | COC(=O)c1ccnc(NC/C=C(\C)CC/C=C(\C)CCC=C(C)C)c1 |  |  |
| 89% | 25 |  |  |  |  |  | CC(C)=CCC/C(C)=C/CC/C(C)=C/CNc1cccc(C(=O)O)c1 | Toxic |  |
| 88% | 27 | 0% | 0% |  |  |  | CCCOc1ccc(C(=O)OC)cc1NC/C=C(\C)CC/C=C(\C)CCC=C(C)C |  |  |
| 50% | 0 |  | 31% |  |  |  | COc1ccc(C(=O)O)cc1NC/C=C(\C)CC/C=C(\C)CCC=C(C)C |  | Toxic |
| 94% | 64 | 0% |  |  |  |  | COc1ccccc1NC/C=C(\C)CC/C=C(\C)CCC=C(C)C |  |  |
| 100% | 68 | 29% | 0% |  |  |  | COC(=O)c1ccc(OC)c(NC/C=C(\C)CC/C=C(\C)CCC=C(C)C)c1 |  |  |
| 100% | 36 | 0% |  |  |  |  | CC(C)=CCC/C(C)=C/CC/C(C)=C/CNc1cc(C(=O)O)ccc1O |  |  |
| 93% | 3 | 36% | 14% |  |  |  | CCCS(=O)(=O)Oc1ccc(C(=O)O)cc1NC/C=C(\C)CC/C=C(\C)CCC=C(C)C |  |  |
| 100% | 5 |  |  |  |  |  | CC(C)=CCC/C(C)=C/CC/C(C)=C/Cc1cc(C(=O)O)ccc1O |  |  |
